Experimental data reported in publication PMC3401268 (Bioorganic & medicinal chemistry, 2012).

Assays:
α-synuclein fibrils [1] = molecular target: T1, α-synuclein fibrils (Homo sapiens, UniProt P37840); assay: ThT saturation binding to α-synuclein fibrils; conditions: Tris buffer 30 mM pH 7.4
α-synuclein fibrils [2] = molecular target: T1, α-synuclein fibrils

| SMILES | Bmax of ThT binding to α-synuclein fibrils (α-synuclein fibrils [1]) | Competition for ThT in the assay (specificity control) (α-synuclein fibrils [2]) |
| --- | --- | --- |
| Cc1ccc2c(c1)sc(-c1ccc(N(C)C)cc1)[n+]2C [ThT, Thioflavin T] | 5672 afu |  |
| CCc1cc(Cl)c(OC)c(C(=O)NC[C@@H]2CCCN2CC)c1O.Cl [eticlopride hydrochloride] |  | no significant competition |
